In US20220211680A1, “COMPOUNDS AND COMPOSITIONS FOR TARGETING MACROPHAGES AND OTHER MANNOSE-BINDING C-TYPE LECTIN RECEPTOR HIGH EXPRESSING CELLS AND METHODS OF TREATING AND DIAGNOSIS USING SAME” (priority 2014, published 2022):

Columns and labels:
DC-SIGN (CD209) = DC-SIGN (CD209) (Homo sapiens, UniProt Q9NNX6); conditions: AF488-labeled tilmanocept, anti-DC-SIGN Ab staining
Protocol: The tissue sections were first deparaffinized with xylene, followed by rehydration with graded alcohols (100%, 95%). A heat-induced epitope retrieval procedure was carried out by heating the tissue slides in citrate buffer (pH 6.0) at 95° C. for 10 min (31). Each tissue section was rehydrated with PBS buffer, blocked (5% non-fat dry milk in PBS+0.01% sodium azide) for 3 h at room temperature, and then incubated with specific primary Abs using manufacturer-recommended dilutions in a humidified chamber at 4° C. overnight. After extensive washing with PBS, the sections were counter-stained with AF488-conjugated anti-mouse and AF549-conjugated anti-rabbit secondary Abs (double staining) for 1 h at room temperature. The sections were washed again extensively and stained with the nuclear DNA stain DAPI for 10 min at room temperature. After washing and drying at room temperature, the slides were examined by a Flow View 1000 Laser Scanning Confocal microscope (Olympus). The MFI of a randomly selected group of confocal images was quantified using a pixel intensity measurement (NIH Image J program).
FFPE lymph node tissue sections were subjected to the antigen retrieval procedure (see immunohistochemistry method above) followed by incubation with AF488-labeled tilmanocept and staining with anti-DC-SIGN Ab.

[1] = system: fresh Kaposi Sarcoma (KS) tumor tissue
Protocol: (§1) CD206 targeting assays were conducted using both in vitro monocyte-derived CD206+ macrophages (MOs) and ex vivo fresh Kaposi Sarcoma (KS) tumor tissue (provided by the AIDS and Cancer Specimen Resource [ACSR]). Tilmanocept-Cy3 with/without a chemo-therapeutic agent (CTA) attached (tilmanocept-Cy3-CTA or tilmanocept-Cy3) interactions with cellular and tumor targets were tracked by flow cytometry and immuno-histochemistry to evaluate Cy3-tilmanocept uptake and targeting capability for delivery of drug into KS tumor cells and TAMs.

[2] = system: luciferase-expressing M tuberculosis H37Rv strain (M.tb-Lux); assay: Anti-bacterial activity against M.tb in human macrophages (luminescence); assay type: cell-based
[3] = system: CD206 expressing macrophages; assay: Apoptosis induction (Annexin-V) in MOs and KS tumor tissue; assay type: cell-based
Protocol: as §1

DC-SIGN (CD209), sequence (Q9NNX6 whole entry): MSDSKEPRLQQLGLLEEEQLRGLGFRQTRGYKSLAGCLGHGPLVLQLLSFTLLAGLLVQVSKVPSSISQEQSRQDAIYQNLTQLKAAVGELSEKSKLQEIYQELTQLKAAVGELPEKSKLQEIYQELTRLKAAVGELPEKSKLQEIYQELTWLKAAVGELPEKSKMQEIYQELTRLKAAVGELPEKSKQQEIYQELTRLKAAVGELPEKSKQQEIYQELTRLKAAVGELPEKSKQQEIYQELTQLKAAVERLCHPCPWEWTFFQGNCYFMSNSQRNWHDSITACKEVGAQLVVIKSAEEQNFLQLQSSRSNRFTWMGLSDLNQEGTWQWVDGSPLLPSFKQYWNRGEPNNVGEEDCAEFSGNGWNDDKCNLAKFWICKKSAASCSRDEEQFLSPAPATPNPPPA

In the case of “dextran 3-[(2-aminoethyl)thio]propyl 17-carboxy-10,13,16-tris(carboxymethyl)-8-oxo-4-thia-7,10,13,16-tetraazaheptadec-1-yl 3-[[2-[[1-imino-2-(D-mannopyranosylthio)ethyl]amino]ethyl]thio]propyl ether complexes [Tilmanocept]”, the “binding to cells in lymph node tissue sections” value (DC-SIGN (CD209)) is reported as “bind in clusters to a population of DC-SIGN-positive cells” and the “uptake in KS biopsy tissue culture” value [1] is reported as “uptake co-localized with CD206+ macrophages”.
In the case of `NNC(=O)c1ccncc1` [INH, isoniazid], the “lowest concentration at which activity against M.tb is maintained” value [2] is reported as 0.0312 µM.
`COc1cccc2c1C(=O)c1c(O)c3c(c(O)c1C2=O)C[C@@](O)(C(=O)CO)C[C@@H]3O[C@H]1C[C@H](N)[C@H](O)[C@H](C)O1` [Docorubicin, doxorubicin] was tested, and the “toxicity to CD206 expressing macrophages (Annexin levels, FIG. 17)” value [3] was “no toxicity” and the “apoptosis induction on MOs and in tumor tissue” value ([3]; Annexin-V, overnight) was “less effect”.
